IC50 and Ki data for five compounds are collected here from PMC5963757, “Expression, purification, and inhibition profile of dihydrofolate reductase from the filarial nematode Wuchereria bancrofti” (PLoS ONE, 2018).

Like-named read-outs stand apart in the source and are kept apart here.

The target of assay [1] is T1, WbDHFR (Wuchereria bancrofti, UniProt J9F199). The class given is biochemical. How it is done: Compounds (-)-epicatechin, (-)-epicatechin gallate, and vitexin were tested as inhibitors of WbDHFR and BmDHFR. The compounds (-)-epicatechin and (-)-epicatechin gallate were synthesized as described previously. […] Disappearance of DHF and NADPH was observed by measuring absorbance at 340 nm to measure the DHFR activity in a SpectraMax M3 microplate reader. […] All experiments were completed in triplicate.

Assay [2] concerns the target T1, WbDHFR. How it is done: To determine the mechanism of inhibition, Dixon plots were created and analyzed for the inhibitors against WbDHFR. We determined WbDHFR activity as described above at DHF concentrations of 2 μM, 4 μM, and 8 μM in 200 μL reaction volumes. WbDHFR (6 nM) and 100 μM NADPH cofactor were included in 1 X MTEN buffer at pH 6.0. […] The reciprocal initial velocities were plotted against inhibitor concentration for each substrate in Excel to create the Dixon plots. Substrate trend-lines were extended to calculate the intersection point,–KI. Each Dixon plot was generated in triplicate.
A linear equation was fitted to the data at each substrate concentration. […] The KI values for BmDHFR in Table 1 were obtained using the Cheng-Prusoff Equation [18]. […] Inhibitor structures are shown in supporting information (S2 Fig).

Where [3] appears, read: read-out: IC50 WbDHFR, pH 6.0, 100 μM NADPH, 50 μM DHF, 12.1 nM WbDHFR, average of triplicates ± S.D.
The mark [4] stands for this setting: read-out: IC50 against WbDHFR Average, average of three trials.
[5] abbreviates: read-out: IC50 against WbDHFR Trial 1, individual trial.
Setting [6] is: read-out: IC50 against WbDHFR Trial 2, individual trial.
[7] abbreviates: read-out: IC50 against WbDHFR Trial 3, individual trial.
Setting [8] is: read-out: Average KI, WbDHFR, average of three trials, Dixon plots.
Setting [9] is: read-out: KI Trial 1, WbDHFR, individual trial, Dixon plot.
[10] abbreviates: read-out: KI Trial 2, WbDHFR, individual trial, Dixon plot.
Where [11] appears, read: read-out: KI Trial 3, WbDHFR, individual trial, Dixon plot.
Where [12] appears, read: read-out: KI WbDHFR, from Dixon plots, 6 nM WbDHFR, 100 μM NADPH, DHF 2, 4, 8 μM, pH 6.0, ± S.D.

As to `O=c1cc(-c2ccc(O)cc2)oc2c([C@@H]3O[C@H](CO)[C@@H](O)[C@H](O)[C@H]3O)c(O)cc(O)c12` [Vitexin, vitexin], the half-inhibitory concentration (IC50) at WbDHFR [1] (setting [3]) is greater than 240 µM.
As to `Oc1cc(O)c2c(c1)O[C@H](c1ccc(O)c(O)c1)[C@H](O)C2` [(-)-Epicatechin, (-)-epicatechin], the half-maximal inhibitory concentration (IC50) on WbDHFR [1] (setting [3]) is greater than 2500 µM.
Turning to `Cc1nc2ccc(CN(C)c3ccc(C(=O)N[C@@H](CCC(=O)O)C(=O)O)s3)cc2c(=O)[nH]1` [Raltitrexed, raltitrexed], the IC50 on WbDHFR [1] (setting [3]) was 18 ± 10 µM; at WbDHFR [1] (setting [4]), 17.8 µM; at WbDHFR [1] (setting [5]) it was 28.6 µM; at WbDHFR [1] (setting [6]), 11.7 µM; on WbDHFR [1] (setting [7]), 13 µM. Also, the Ki at WbDHFR [2] (setting [8]) turned out to be 1.6 µM; at WbDHFR [2] (setting [9]) it was 0.536 µM; at WbDHFR [2] (setting [10]), 1.09 µM; at WbDHFR [2] (setting [11]), 3.32 µM.
On to `Nc1nc(N)c2nc(CNc3ccc(C(=O)N[C@@H](CCC(=O)O)C(=O)O)cc3)cnc2n1` [Aminopterin, aminopterin], for which the half-inhibitory concentration (IC50) at WbDHFR [1] (setting [3]) came out at 0.014 ± 0.005 µM; at WbDHFR [1] (setting [4]), 0.0144 µM; on WbDHFR [1] (setting [5]), 0.0203 µM; at WbDHFR [1] (setting [6]), 0.00996 µM; at WbDHFR [1] (setting [7]) it was 0.013 µM. Further, the Ki was 0.0026 µM on WbDHFR [2] (setting [9]); 0.00219 µM on WbDHFR [2] (setting [10]); 0.0016 µM on WbDHFR [2] (setting [11]); 0.0021 ± 0.0005 µM on WbDHFR [2] (read-out: KI WbDHFR, as stated in text (abstract, discussion)); 0.0021 ± 0.0005 µM on WbDHFR [2] (setting [12]).
`CCc1nc(N)nc(N)c1-c1ccc(Cl)cc1` [Pyrimethamine, pyrimethamine]: the half-maximal inhibitory concentration (IC50) on WbDHFR [1] (setting [3]) came to 454 ± 37 µM; on WbDHFR [1] (setting [4]), 454 µM; at WbDHFR [1] (setting [5]), 449 µM; at WbDHFR [1] (setting [6]) it was 494 µM; at WbDHFR [1] (setting [7]), 420 µM. The inhibitory constant (Ki) on WbDHFR [2] (setting [8]) is 15 µM; at WbDHFR [2] (setting [9]), 20.3 µM; on WbDHFR [2] (setting [10]) it was 15.9 µM; at WbDHFR [2] (setting [11]) it was 8.89 µM; on WbDHFR [2] (setting [12]), 15 ± 6 µM.
